Experimental data taken from US20260374817A1, “COMPOSITIONS COMPRISING TREM-1 INHIBITORS AND USES THEREOF” (INOTREM, priority 2023, published 2026).
Entries after “also recorded” stand apart in the source; their conditions may differ.

Tests used:
[1] = tested on: TREM-1 pathway; assay: ROS production by LPS-stimulated human primary neutrophils (DCFDA, flow cytometry, MFI); type: cell-based; conditions: for decrease of LPS-induced ROS production: 100 ng/mL LPS, 2 hours, 37 °C, LR12 or LR12-dimer 10 and 50 μg/mL; for TREM-1 inhibiting property / biological activity: preclinical in vitro pharmacology model
Description: FIG. 1 is a graph showing the results from flow cytometric quantification (DCFDA reduction) of neutrophils ROS production after 2 hours stimulation with LPS, LPS+10 μg/mL LR12, LPS+50 μg/mL LR12, LPS+10 μg/mL LR12-dimer (dimer), LPS+50 μg/mL LR12-dimer (dimer). […]; **p<0.01 (T test).
Neutrophils produce reactive oxygen species (ROS) in presence of LPS (lipopolysaccharides) following activation of the TREM-1 pathway and are thus used in the present example in order to assess TREM-1 activation and the biological activity of the LR12 dimer on the TREM-1 pathway. ROS production induced by TREM-1 activation and its modulation by LR12 can be quantified by flow cytometry. Any decrease in ROS production by LR12 (LPS+LR12 conditions) translates into a decrease in mean fluorescence intensity (MFI) as compared to the ROS production observed following the TREM-1 activation in presence of LPS (LPS condition).
Primary human neutrophils were isolated from the peripheral blood of healthy donors by immunomagnetic negative cell sorting with EasySep™ Human Monocyte/Neutrophil Isolation Kits (StemCell, Canada) following the manufacturer's instructions. Purity was assessed by flow cytometry. Cells were suspended in RPMI 1640 medium containing GlutaMAX and supplemented with 10% FCS, 25 mM HEPES, 100 U/ml penicillin and streptomycin before stimulation. Human primary neutrophils were incubated in resting conditions (also referred to as control conditions or ctrl 2), or with 100 ng/mL LPS from E. coli serotype 0127: B8 (Sigma-Aldrich), with or without LR12 or LR12-dimer (dimer) at the indicated concentrations.
Upon cleavage of the acetate groups by intracellular esterases and oxidation, the nonfluorescent DCFDA is converted to the highly fluorescent 2′,7′-dichlorofluorescein (DCF). 2.5×10^5 isolated human neutrophils were incubated 2 hours at 37 °C-5% CO2 with 5 μM of DCFDA, with or without 100 ng/mL LPS, and with or without LR12 or LR12-dimer (dimer) at the indicated concentrations. Data were acquired using flow cytometry. Results are expressed as mean fluorescence intensity (MFI).

[2] = tested on: TREM-1 signaling; conditions: Derive et al., 2012; cited from earlier work
[3] = tested on: adult minipig model of induced sepsis; conditions: after induction of fecal peritonitis; Derive et al., 2013; cited from earlier work
[4] = Solubility of LR12 in formulations / screening of solubility aids; type: physicochemical
Description: Briefly, to reduce the formation of disulfide bridges, the pH during the formulation process was reduced to below 6.0. However, LR12 contains 4 acidic, negatively charged amino acids, namely glutamate (Glu) and aspartate (Asp) and no basic amino acids.
To solve this problem, solubility aids were screened at pH 5.5 and 6.5.
The purified substance of LR12 peptide (of example 2) is formulated using the following excipients: 50 mM sodium citrate pH 5.5; 50 mM NaCl.
The purified substance of LR12 peptide (of example 2) is formulated using the following excipients: 50 mM sodium phosphate pH 6.5; 50 mM NaCl.
The purified substance of LR12 peptide (of example 2) is formulated using the following excipients: 50 mM sodium citrate pH 5.5; 200 mM mannitol.
The purified substance of LR12 peptide (of example 2) is formulated using the following excipients: 50 mM sodium citrate pH 5.5; 150 mM betaine.
The purified substance of LR12 peptide (of example 2) is formulated using the following excipients: 5 0 mM sodium citrate pH 5.5; 50 mM lysine; 50 mM NaCl.
The purified substance of LR12 peptide (of example 2) is formulated using the following excipients: 50 mM sodium citrate pH 5.5; 50 mM arginine.
The purified substance of LR12 peptide (of example 2) is formulated using the following excipients: 25 mM sodium citrate pH 5.5; 225 mM arginine; 65 mM HCl.
Formulations using incremental concentrations of the purified substance of LR12 peptide (of example 2) and incremental concentrations of the following excipients: Arginine 90 to 420 mM, using only HCl for pH adjustment to 5.5.

In the case of `CSCC[C@H](NC(=O)[C@H](CSSC[C@H](NC(=O)CNC(=O)[C@H](Cc1ccc(O)cc1)NC(=O)[C@H](CCC(=O)O)NC(=O)CNC(=O)[C@H](C)NC(=O)[C@H](CC(=O)O)NC(=O)[C@H](CCC(=O)O)NC(=O)[C@H](CCC(=O)O)NC(=O)[C@H](CCC(N)=O)NC(=O)[C@@H](N)CC(C)C)C(=O)N[C@@H](CCSC)C(N)=O)NC(=O)CNC(=O)[C@H](Cc1ccc(O)cc1)NC(=O)[C@H](CCC(=O)O)NC(=O)CNC(=O)[C@H](C)NC(=O)[C@H](CC(=O)O)NC(=O)[C@H](CCC(=O)O)NC(=O)[C@H](CCC(=O)O)NC(=O)[C@H](CCC(N)=O)NC(=O)[C@@H](N)CC(C)C)C(N)=O` [LR12 dimer], the “decrease of LPS-induced ROS production” value [1] is reported as “not able to decrease the production of ROS by LPS-activated neutrophils”, the “TREM-1 inhibiting property / biological activity” value [1] is reported as “did not display any TREM-1 inhibiting property; also recorded: inactive in a preclinical in vitro pharmacology model; also recorded: biologically inactive” and the “TREM-1 inhibiting property / biological activity” value ([1]; listed as LR12-dimer) is reported as “not able to induce any pharmacological inhibition of TREM-1”.

In the case of `CSCC[C@H](NC(=O)[C@H](CS)NC(=O)CNC(=O)[C@H](Cc1ccc(O)cc1)NC(=O)[C@H](CCC(=O)O)NC(=O)CNC(=O)[C@H](C)NC(=O)[C@H](CC(=O)O)NC(=O)[C@H](CCC(=O)O)NC(=O)[C@H](CCC(=O)O)NC(=O)[C@H](CCC(N)=O)NC(=O)[C@@H](N)CC(C)C)C(N)=O` [LR12], the anti-inflammatory properties [2] is given as “exhibit anti-inflammatory properties by inhibiting TREM-1 signaling”, the “decrease of LPS-induced ROS production” value [1] is given as “able to decrease in a dose-dependent manner the LPS-induced release of ROS” and the cardiovascular failure [3] is given as “reduced cardiovascular failure”. The survival [3] was “improved survival”, the “solubility below pH 5.0” value ([4]; below pH 5.0) was “barely soluble below pH 5.0” and the “solubility with solubility aids (no improvement)” value ([4]; pH 5.5 and 6.5, Tween 20, mannitol, sucrose, trehalose, betaine, urea, glutathione, ammonium acetate, citrate) was “failed to improve the solubility of LR12”. The solubility ([4]; screened at pH 5.5 and 6.5, only by adding lysine or arginine or histidine, read-out: solubility reached with positively charged solubility enhancing agents) was 40 mg/mL.
